{"source": "BindingDB's records for PubMed 30559935", "about": "(University of Nottingham)", "key": {"[1]": {"assay": "Inhibition of EZH2 in human EPN8 cells assessed as reduction in cell viability incubated for 120 hrs by MTT assay"}, "[2]": {"assay": "Inhibition of EZH2 in human DKFZ-EP1 cells assessed as reduction in cell viability incubated for 120 hrs by MTT assay"}, "[3]": {"assay": "Inhibition of EZH2 in human BXD-1425EPN cells assessed as reduction in cell viability incubated for 120 hrs by MTT assay"}}, "data": [{"smiles": "CCCc1cc(C)[nH]c(=O)c1CNC(=O)c1cc(-c2ccnc(N3CCN(C)CC3)c2)cc2c1cnn2C(C)C", "values": [{"measurement": "IC50", "setting": "[1]", "value": 20, "unit": "µM"}, {"measurement": "IC50", "setting": "[2]", "value": 20, "unit": "µM"}, {"measurement": "IC50", "setting": "[3]", "value": 16, "unit": "µM"}]}]}
